Source: patent US20070225245A1, “Viral vector driven mutant bacterial cytosine deaminase gene and uses thereof” (priority 1998, published 2007)
Converted amounts (≈) assume the structure as drawn.

Legend:
[1] = system: WiDr human colon cancer cells; experiment: Radiation dose response, colony formation after Ad infection and 5-FC; assay type: cell-based; conditions: No Viral Infection, 20 mg/ml 5-FC
Method: WiDr human colon cancer cells were plated at a density of 5×10^5 cells/well in 6-well tissue culture plates 24 hours prior to adenoviral infection. WiDr cells were then infected with AdCMVCD at a multiplicity of infection (MOI) of 1 or 10 plaque forming units (pfu) per cell in 0.5 ml Opti-Mem (Gibco-BRL) for 1.5 hours. A control virus that encodes the reporter gene E. coli LacZ which produces β-galactosidase (AdCMVLacZ) was provided by Dr. De-Chu Tang. Viral infection was stopped by the addition of 3 ml of complete growth media and the cells were returned to the incubator overnight. The following day, media was replaced with media supplemented with the appropriate concentration of 5-FC or no drug. The cells were then incubated in 5-FC for 3 days. The cells were then mock irradiated or irradiated on ice using a Picker ^60Co therapy unit (Cleveland, Ohio) at a dose rate of 80 cGy/min. The cells were then plated for colony formation. Colonies formed in 14 days and were fixed in ethanol and stained with 1% crystal violet.
SK-ChA-1 cells were infected with 10 MOI of AdCMVCD, or AdCMVLacZ, treated with 0, 10 or 20 μg/ml 5-FC for 72 hours, then irradiated with 0 or 8 Gy (80 cGy/min). The cells were irradiated on ice, then trypsinized, counted and plated in triplicate in 25 cm^2 tissue culture dishes (Costar) in media free of 5-FC. The plates were fixed and stained 14 days later. For both WiDr and SK-ChA-1 cells, colonies containing greater than 50 cells were counted. Percent survival was calculated as the average number of colonies counted divided by the number of cells plated times plating efficiency (PE); where PE was the fraction of colonies counted divided by cells plated without radiation. The dose response curve was fitted using the Fit v 2.4 software (provided by Dr. N. Albright, University of California at San Francisco, San Francisco, Calif.).

[2] = system: Intracranial U87MG Human Gliomas; experiment: Survival, intracranial glioma, intratumoral Ad and systemic 5-FC; assay type: in vivo, SCID mice; conditions: for Survival 20% / Survival Median: Saline (no virus) + 5-FC
Method: U87MG and D54MG cells (5×10^5) were stereotactically injected into the right frontal cortex of SCID mice. Tumors were established for 5 days before intratumoral injection of AdCMVCD (10^8 or 10^9 pfu/mouse). Mice were then treated IP with 5-FC (500 mg/kg bid) on days 2-9 post infection and monitored for survival. Kaplan-Meier survival curves and median and 20% survival values were calculated by standard methods.
U87MG cells (5×10^5), the stringent glioma model, were stereotactically injected into the right frontal cortex of SCID mice. Tumors were established for 5 days before intratumoral injection of AdE1ACD or AdCMVCD (10^8 or 10^9 pfu/mouse). Mice were then treated IP with 5-FC (500 mg/kg bid) on days 2-9 post infection and monitored for survival. Kaplan-Meier survival curves and median and 20% survival values were calculated by standard methods.

MIA PaCa-2 xenografts = experiment: Subcutaneous human pancreatic tumor xenograft, tumor growth; assay type: in vivo, athymic nude mice
Method: Treatment was started at the time of established tumor growth (Day 0 equal to 17 days after tumor cell injection). Animals were injected i.t. with PBS or 5×10^7 TCID50 of AdbCD-D314A on Days 0, 7, and 14, and then irradiated with 2 Gy on Days 1, 8 and 15 using a ^60Co gamma irradiator, and 400 mg/kg of 5-FC was i.p. administered at qd×5/week for 3 weeks starting on Day 1. Data points represent the mean change in tumor surface area relative to Day 0 for each group of animals.
To evaluate in vivo therapeutic efficacy of the combination of AdbCD-D314A/5-FC and radiation treatment, 16×10^6 MIA PaCa-2 tumor cells were resuspended 1:1 (v/v) in Matrigel (Becton Dickinson) and injected s.c. into female athymic nude mice. Treatment was started 17 days post-tumor cell injection at the time of established tumor growth, noted as Day 0. Animals were randomly divided into groups receiving different treatments: 1) AdbCD-D314A plus 5-FC; 2) AdbCD-D314A plus 5-FC in combination with radiation; 3) PBS plus 5-FC in combination with radiation; 4) PBS plus 5-FC. Two groups of mice (# 1 and 2) were injected i.t. with 5×10^7 TCID50 AdbCD-D314A on Days 0, 7, and 14. […] Tumor size was monitored twice a week using digital Vernier calipers. Tumor surface areas were calculated as width×length (mm^2).

[3] = system: human pancreatic cancer cells; conditions: Uninfected cells; 5-FC at 764 μg/ml
Method: To measure the cytotoxicity of 5-FU and 5-FC, glioma cells or pancreatic cancer cells were plated into 96-well tissue culture plates at 5×10^3 cells/well, and allowed to adhere overnight. Next day, serial dilutions of 5-FU or 5-FC were added directly to cells. Cells were incubated for 5 days, and relative cell density was determined using a crystal violet staining assay. Cell culture medium was removed and surviving cells were then fixed and stained with 2% (w/v) crystal violet (Sigma-Aldrich) in 70% ethanol for 3 h at room temperature. The plates were washed extensively, air-dried and optical density was measured at 570 nm using a V Max plate reader (Molecular Devices Corporation, Sunnyvale Calif.). Fractional cell survival at each drug concentration was calculated as the ratio of absorbance at 570 nm of cells incubated in the presence versus absence of drug, corrected for background absorbance of media alone. Fractional cell survival data were plotted against drug concentration and IC50 values extrapolated by piecewise linear regression as the concentration of drug producing a 50% reduction in corrected absorbance.

D54MG = experiment: 5-FC or 5-FU toxicity (MTS) in Ad-infected cells; assay type: cell-based; conditions: Homo sapiens, Table 14, MOI 0
Method: (§1) Next, cytosine deaminase was administered to glioma cells via the replication deficient adenovirus. Glioma cells plated in T25 flasks were infected with AdCMVCD at several multiplicities of infection (MOI 0-300 pfu/cell) for 1 h at 37° C. At twenty-four hours post-infection, cells were harvested, replated at 5×10^3 cells/well in 96 well plates, and allowed to adhere overnight. […]
(§2) To test this hypothesis, 5-FC toxicity (IC50) was compared in cells infected with AdCMVCD versus AdCDUPRT. […] In Table 13 mean 5-FC IC50 was obtained from 2-5 separate experiments. Cells were infected with AdCMVCD or AdCDUPRT at the indicated MOI (pfu/cell) for 1 h at 37° C. 5-FC toxicity was determined by MTS assay 5 days after drug addition.

U251MG = experiment: 5-FC or 5-FU toxicity (MTS) in Ad-infected cells; assay type: cell-based; conditions: Homo sapiens, U-251, Table 14, MOI 0
Method: as §1, §2

U87MG = experiment: 5-FC or 5-FU toxicity (MTS) in Ad-infected cells; assay type: cell-based; conditions: Homo sapiens, U-87 MG, Table 14, MOI 0
Method: as §1, §2

Structure (SMILES) | Linear Quadratic Parameters a [1] | Linear Quadratic Parameters al [1] | Linear Quadratic Parameters b [1] | Single Hit Multiple Target Do [1] | Single Hit Multiple Target Dq [1] | Survival 20% ([2]; Table 6) | Survival Median ([2]; Table 6) | Survival 20% ([2]; Table 8) | Survival Median ([2]; Table 8) | Survival 20% ([2]; Table 11) | Survival Median ([2]; Table 11) | median survival ([2]; U87MG, no virus/5-FC) [days] | mean time to tumor doubling (MIA PaCa-2 xenografts; PBS plus 5-FC) [days] | mean time to tumor doubling (MIA PaCa-2 xenografts; PBS plus 5-FC in combination with radiation) [days] | cytotoxicity [3] | IC50 (D54MG) [µg/mL] | IC50 (U251MG) [µg/mL] | IC50 (U87MG) [µg/mL]
Nc1nc(=O)[nH]cc1F [5-FC, 5-fluorocytosine] | 0 | 0 | 0.04 | 1.760 | 3.679 | 61 | 50 | 34 | 34 | 60 | 57 | 57 | 14 | 30 | no detectable cytotoxicity |  |  | 
O=c1[nH]cc(F)c(=O)[nH]1 [5-FU, 5-fluorouracil] |  |  |  |  |  |  |  |  |  |  |  |  |  |  |  | 1.3 (≈ 9.99 µM) | 0.4 (≈ 3.08 µM) | 1.8 (≈ 13.8 µM)
